Reference: publication PMC6437697 (Journal of Medicinal Chemistry, 2019)

Tests used:
Assay in all cases: KINOMEscan
Format in all cases: binding
Details in all cases: read-out: % control activity remaining
SRPK3 = target: T1, SRPK3 (Homo sapiens, UniProt Q9UPE1)
T1 construct: purchased Eurofins DiscoverX KINOMEscan

KIT(A829P) = target: T2, KIT(A829P) (Homo sapiens, UniProt P10721, A829P)
T2 construct: purchased Eurofins DiscoverX KINOMEscan

EPHB6 = target: T3, EPHB6 (Homo sapiens, UniProt O15197)
T3 construct: purchased Eurofins DiscoverX KINOMEscan
T3 sequence (O15197 32-1021): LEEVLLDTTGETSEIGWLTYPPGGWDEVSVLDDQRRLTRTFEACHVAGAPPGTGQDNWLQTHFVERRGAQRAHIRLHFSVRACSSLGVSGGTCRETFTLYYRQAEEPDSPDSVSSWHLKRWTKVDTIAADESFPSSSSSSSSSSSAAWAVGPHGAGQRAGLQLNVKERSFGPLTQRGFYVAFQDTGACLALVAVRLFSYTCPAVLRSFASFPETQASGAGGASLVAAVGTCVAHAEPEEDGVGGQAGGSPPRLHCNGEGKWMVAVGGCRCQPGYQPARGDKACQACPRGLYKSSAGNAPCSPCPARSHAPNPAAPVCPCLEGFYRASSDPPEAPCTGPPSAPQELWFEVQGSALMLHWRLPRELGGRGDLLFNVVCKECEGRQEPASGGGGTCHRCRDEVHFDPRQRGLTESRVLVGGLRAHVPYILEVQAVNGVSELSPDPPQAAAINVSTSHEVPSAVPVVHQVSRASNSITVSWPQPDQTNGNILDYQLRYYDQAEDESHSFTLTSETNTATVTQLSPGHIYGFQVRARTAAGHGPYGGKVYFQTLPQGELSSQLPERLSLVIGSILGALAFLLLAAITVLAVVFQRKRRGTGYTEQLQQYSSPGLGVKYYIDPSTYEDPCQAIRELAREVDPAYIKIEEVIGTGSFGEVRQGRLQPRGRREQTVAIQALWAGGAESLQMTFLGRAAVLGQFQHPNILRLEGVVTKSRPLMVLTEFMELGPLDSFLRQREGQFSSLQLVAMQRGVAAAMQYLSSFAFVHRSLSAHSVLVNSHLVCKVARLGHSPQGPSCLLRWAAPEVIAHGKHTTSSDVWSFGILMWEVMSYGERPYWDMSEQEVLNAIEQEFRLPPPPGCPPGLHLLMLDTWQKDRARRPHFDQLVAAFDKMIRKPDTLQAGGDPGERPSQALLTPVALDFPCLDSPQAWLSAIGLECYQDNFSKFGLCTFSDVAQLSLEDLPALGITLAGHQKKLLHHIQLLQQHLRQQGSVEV

CAMK2G = target: T4, CAMK2G (Homo sapiens, UniProt Q13555)
T4 construct: purchased Eurofins DiscoverX KINOMEscan

TRPM6 = target: T5, TRPM6 (Homo sapiens, UniProt Q9BX84)
T5 construct: purchased Eurofins DiscoverX KINOMEscan

PDPK1 = target: T6, PDPK1 (Homo sapiens, UniProt O15530)
T6 construct: purchased Eurofins DiscoverX KINOMEscan
T6 sequence (O15530 1-556): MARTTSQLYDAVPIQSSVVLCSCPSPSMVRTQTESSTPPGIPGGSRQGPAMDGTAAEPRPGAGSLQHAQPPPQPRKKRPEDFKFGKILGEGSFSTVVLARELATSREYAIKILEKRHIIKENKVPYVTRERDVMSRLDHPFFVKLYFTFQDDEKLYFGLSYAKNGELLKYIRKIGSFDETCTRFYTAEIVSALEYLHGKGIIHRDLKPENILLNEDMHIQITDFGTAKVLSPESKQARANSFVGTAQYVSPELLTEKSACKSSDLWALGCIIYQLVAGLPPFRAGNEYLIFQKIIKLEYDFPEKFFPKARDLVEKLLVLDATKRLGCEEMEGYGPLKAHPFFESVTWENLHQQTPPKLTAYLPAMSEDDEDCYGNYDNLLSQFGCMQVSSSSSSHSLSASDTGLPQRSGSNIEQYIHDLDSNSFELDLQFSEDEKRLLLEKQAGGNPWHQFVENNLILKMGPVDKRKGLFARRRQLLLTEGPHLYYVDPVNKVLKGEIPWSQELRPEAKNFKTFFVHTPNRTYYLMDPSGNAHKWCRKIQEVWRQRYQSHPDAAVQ

PKAC-alpha = target: T7, PKAC-alpha (Homo sapiens, UniProt P17612)
T7 construct: purchased Eurofins DiscoverX KINOMEscan

DDR2 = target: T8, DDR2 (Homo sapiens, UniProt Q16832)
T8 construct: purchased Eurofins DiscoverX KINOMEscan
T8 sequence (Q16832 22-855): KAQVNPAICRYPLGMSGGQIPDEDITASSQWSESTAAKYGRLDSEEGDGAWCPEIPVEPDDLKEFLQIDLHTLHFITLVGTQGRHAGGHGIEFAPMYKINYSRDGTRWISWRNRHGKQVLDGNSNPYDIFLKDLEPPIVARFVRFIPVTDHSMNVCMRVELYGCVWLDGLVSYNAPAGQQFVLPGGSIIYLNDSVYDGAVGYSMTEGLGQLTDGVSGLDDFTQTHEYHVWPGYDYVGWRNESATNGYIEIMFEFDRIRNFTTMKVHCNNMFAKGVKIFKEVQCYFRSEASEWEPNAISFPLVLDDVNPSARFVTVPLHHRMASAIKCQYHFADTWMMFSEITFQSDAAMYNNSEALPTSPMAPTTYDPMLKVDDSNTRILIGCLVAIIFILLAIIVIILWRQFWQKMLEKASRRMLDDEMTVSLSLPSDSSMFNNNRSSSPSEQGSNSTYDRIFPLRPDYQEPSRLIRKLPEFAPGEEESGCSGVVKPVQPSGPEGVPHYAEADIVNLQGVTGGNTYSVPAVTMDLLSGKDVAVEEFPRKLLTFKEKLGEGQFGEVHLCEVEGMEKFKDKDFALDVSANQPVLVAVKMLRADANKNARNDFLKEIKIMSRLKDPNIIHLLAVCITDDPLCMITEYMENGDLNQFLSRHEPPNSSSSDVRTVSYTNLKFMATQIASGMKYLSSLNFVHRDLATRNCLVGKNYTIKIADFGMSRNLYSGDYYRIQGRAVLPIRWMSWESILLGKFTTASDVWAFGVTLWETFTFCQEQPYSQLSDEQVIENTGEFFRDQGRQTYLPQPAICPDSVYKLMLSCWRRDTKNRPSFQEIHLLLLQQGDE

T4 sequence (Q13555 whole entry): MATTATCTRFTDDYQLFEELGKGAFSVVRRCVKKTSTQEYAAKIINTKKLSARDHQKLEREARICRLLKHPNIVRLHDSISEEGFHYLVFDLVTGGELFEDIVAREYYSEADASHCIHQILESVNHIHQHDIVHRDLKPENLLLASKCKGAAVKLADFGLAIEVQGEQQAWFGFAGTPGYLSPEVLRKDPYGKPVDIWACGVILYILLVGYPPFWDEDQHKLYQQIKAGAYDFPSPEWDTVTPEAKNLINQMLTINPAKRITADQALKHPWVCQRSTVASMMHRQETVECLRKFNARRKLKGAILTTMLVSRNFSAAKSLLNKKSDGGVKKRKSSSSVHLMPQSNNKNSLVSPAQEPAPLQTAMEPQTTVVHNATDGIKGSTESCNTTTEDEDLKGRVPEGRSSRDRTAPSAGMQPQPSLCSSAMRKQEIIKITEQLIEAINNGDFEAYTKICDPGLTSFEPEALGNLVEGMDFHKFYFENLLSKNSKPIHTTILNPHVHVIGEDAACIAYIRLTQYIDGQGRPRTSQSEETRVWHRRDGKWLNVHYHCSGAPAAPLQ
T5 sequence (Q9BX84 whole entry): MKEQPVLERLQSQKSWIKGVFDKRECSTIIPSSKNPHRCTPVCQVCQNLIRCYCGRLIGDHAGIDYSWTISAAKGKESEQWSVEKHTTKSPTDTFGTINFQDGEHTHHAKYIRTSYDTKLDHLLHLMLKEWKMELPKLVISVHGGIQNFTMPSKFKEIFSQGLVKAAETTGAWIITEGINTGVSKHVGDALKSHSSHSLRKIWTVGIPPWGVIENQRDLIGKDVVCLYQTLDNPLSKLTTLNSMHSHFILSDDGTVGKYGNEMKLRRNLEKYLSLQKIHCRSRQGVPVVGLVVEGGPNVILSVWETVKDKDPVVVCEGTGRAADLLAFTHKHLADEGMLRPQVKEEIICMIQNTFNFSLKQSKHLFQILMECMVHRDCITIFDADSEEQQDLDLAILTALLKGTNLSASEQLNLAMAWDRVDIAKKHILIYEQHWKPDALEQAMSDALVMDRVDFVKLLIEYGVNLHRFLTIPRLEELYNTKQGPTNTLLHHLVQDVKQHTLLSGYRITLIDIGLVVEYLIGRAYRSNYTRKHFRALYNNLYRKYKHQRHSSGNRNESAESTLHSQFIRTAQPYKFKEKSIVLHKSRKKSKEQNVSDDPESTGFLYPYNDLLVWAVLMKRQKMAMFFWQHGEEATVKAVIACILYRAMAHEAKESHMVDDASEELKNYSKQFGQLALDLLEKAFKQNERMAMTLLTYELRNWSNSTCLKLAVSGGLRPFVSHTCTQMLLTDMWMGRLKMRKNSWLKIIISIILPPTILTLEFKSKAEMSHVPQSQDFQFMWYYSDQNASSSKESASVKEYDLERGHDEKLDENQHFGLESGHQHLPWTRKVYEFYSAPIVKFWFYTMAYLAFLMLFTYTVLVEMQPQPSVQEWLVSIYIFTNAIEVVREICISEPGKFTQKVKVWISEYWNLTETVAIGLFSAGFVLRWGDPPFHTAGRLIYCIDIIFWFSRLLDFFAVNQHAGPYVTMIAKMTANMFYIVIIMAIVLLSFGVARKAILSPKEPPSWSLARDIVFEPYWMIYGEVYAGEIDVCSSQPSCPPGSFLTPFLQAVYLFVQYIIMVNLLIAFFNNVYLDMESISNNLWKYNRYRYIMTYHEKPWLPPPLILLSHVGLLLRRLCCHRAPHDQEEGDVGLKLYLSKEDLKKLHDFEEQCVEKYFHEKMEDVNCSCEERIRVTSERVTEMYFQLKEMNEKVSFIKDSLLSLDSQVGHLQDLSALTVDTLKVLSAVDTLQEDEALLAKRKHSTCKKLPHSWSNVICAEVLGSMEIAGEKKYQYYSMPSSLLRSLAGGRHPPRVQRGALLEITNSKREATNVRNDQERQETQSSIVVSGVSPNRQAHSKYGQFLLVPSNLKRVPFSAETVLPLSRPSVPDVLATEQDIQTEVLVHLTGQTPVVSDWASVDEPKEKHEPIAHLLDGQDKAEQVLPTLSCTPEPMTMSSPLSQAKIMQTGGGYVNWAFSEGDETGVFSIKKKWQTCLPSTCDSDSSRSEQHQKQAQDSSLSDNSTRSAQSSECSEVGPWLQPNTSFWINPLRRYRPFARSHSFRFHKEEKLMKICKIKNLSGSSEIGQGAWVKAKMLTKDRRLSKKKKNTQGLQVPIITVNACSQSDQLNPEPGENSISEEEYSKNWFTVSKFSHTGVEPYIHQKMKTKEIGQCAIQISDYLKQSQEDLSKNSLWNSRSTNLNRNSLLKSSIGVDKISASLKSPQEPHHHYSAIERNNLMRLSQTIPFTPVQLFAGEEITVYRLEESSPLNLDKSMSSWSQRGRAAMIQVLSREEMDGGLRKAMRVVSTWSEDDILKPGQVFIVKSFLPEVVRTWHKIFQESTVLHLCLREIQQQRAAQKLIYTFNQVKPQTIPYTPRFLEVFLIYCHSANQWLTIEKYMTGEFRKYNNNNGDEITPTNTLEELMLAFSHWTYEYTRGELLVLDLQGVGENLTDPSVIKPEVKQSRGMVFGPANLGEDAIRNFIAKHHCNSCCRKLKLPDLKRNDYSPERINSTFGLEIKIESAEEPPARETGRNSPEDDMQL
T2 sequence (P10721 26-976 A829P): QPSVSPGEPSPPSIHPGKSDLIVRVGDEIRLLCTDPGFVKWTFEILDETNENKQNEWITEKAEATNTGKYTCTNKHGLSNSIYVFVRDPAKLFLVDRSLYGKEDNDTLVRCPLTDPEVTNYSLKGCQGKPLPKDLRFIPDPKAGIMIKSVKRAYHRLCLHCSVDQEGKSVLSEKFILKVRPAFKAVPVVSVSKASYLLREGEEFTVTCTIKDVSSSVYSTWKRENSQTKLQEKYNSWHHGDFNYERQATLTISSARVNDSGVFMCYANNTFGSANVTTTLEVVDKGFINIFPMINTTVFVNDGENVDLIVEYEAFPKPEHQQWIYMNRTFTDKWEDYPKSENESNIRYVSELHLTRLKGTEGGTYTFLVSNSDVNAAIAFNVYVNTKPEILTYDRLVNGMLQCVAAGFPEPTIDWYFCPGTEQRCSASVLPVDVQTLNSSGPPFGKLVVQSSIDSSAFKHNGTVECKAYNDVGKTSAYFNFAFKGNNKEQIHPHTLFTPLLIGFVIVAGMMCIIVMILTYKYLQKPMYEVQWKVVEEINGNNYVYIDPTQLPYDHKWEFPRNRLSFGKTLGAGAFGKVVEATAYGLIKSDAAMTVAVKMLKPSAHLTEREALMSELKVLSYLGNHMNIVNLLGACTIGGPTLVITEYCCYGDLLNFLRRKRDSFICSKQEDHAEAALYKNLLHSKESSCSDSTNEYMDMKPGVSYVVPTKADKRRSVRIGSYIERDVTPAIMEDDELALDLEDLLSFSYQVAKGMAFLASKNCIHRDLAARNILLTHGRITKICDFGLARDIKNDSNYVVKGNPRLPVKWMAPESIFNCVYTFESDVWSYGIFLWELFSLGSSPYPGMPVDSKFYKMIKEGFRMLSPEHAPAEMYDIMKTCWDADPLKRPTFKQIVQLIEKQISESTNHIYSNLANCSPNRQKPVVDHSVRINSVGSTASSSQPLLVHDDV
T1 sequence (Q9UPE1 whole entry): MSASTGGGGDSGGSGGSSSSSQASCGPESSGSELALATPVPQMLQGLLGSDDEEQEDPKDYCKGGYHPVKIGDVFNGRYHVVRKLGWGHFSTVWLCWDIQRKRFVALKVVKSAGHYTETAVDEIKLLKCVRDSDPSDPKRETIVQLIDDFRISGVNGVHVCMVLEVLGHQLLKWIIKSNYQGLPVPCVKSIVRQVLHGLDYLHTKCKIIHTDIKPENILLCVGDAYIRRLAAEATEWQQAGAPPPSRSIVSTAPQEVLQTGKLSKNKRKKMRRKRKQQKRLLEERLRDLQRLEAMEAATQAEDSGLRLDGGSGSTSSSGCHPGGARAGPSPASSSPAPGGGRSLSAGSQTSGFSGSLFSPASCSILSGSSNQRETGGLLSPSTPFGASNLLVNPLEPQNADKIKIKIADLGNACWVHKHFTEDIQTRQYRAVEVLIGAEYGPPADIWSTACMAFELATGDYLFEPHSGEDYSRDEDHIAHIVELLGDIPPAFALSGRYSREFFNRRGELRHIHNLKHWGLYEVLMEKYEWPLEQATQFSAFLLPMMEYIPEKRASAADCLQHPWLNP

| SMILES | remaining binding at 1 µM (SRPK3) [%] | remaining binding at 1 µM (KIT(A829P)) [%] | remaining binding at 1 µM (EPHB6) [%] | remaining binding at 1 µM (CAMK2G) [%] | remaining binding at 1 µM (TRPM6) [%] | remaining binding at 1 µM (PDPK1) [%] | remaining binding at 1 µM (PKAC-alpha) [%] | remaining binding at 1 µM (DDR2) [%] |
| --- | --- | --- | --- | --- | --- | --- | --- | --- |
| Clc1cc(NCC2CC2)c2ncc(-c3ccc4[nH]ncc4c3)n2n1 [compound 2, 6-Chloro-N-(cyclopropylmethyl)-3-(1H-indazol-5-yl)imidazo[1,2-b]pyridazin-8-amine] | 49 | 75 | 68 | 100 | 100 | 88 | 68 | 86 |
| O=C(CN1CCOCC1)N[C@H]1CC[C@H](Nc2cc(Cl)nn3c(-c4ccc5[nH]ncc5c4)cnc23)CC1 [compound 26] | 66 | 45 | 89 | 52 | 92 | 100 | 100 | 98 |
| CN1CCC(CNc2cc(Cl)nn3c(-c4cc5nc(Nc6ccccc6)[nH]c5cc4F)cnc23)CC1 [compound 31, 6-Chloro-3-(6-fluoro-2-(phenylamino)-1H-benzo[d]imidazol-5-yl)-N-((1-methylpiperidin-4-yl)methyl)imidazo[1,2-b]pyridazin-8-amine] | 100 | 94 | 83 | 100 | 85 | 100 | 94 | 100 |
